Results: ChEMBL document CHEMBL1201862, “PubChem BioAssay data set” (2004)
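Test compounds were applied to cells in 96-well plates for 48 hours at 5 doses. GI50: concentration for 50% inhibition of growth.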 The source made the active and inactive calls. Cut-off read from the data, not from the text of the source: active = GI50 up to about 1.1 µM and inactive = higher.

How the values were obtained:
Test in all cases: growth of human tumour cells (NCI), 48 h
KM12 = tested on: KM12
OVCAR-8 = tested on: OVCAR-8
K562 = tested on: K562
COLO 205 = tested on: COLO 205
OVCAR-3 = tested on: OVCAR-3
BT-549 = tested on: BT-549
HOP-62 = tested on: HOP-62
SW-620 = tested on: SW-620
NCI-H23 = tested on: NCI-H23
OVCAR-5 = tested on: OVCAR-5
CCRF-CEM = tested on: CCRF-CEM
MCF7 = tested on: MCF7
SN12C = tested on: SN12C
SNB-19 = tested on: SNB-19
HL-60 = tested on: HL-60
SK-MEL-2 = tested on: SK-MEL-2
NCI-H460 = tested on: NCI-H460
LOX IMVI = tested on: LOX IMVI
HT-29 = tested on: HT-29

SMILES	GI50 (KM12)	GI50 (OVCAR-8)	GI50 (K562)	GI50 (COLO 205)	GI50 (OVCAR-3)	GI50 (BT-549)	GI50 (HOP-62)	GI50 (SW-620)	GI50 (NCI-H23)	GI50 (OVCAR-5)	GI50 (CCRF-CEM)	GI50 (MCF7)	GI50 (SN12C)	GI50 (SNB-19)	GI50 (HL-60)	GI50 (SK-MEL-2)	GI50 (NCI-H460)	GI50 (LOX IMVI)	GI50 (HT-29)
Cc1ccc(C)n2c1nc1cc3ccccc3cc12	21.1 µM (inactive)	44.4 µM (inactive)	47.2 µM (inactive)	3.52 µM (inactive)	25.1 µM (inactive)	25.6 µM (inactive)	21 µM (inactive)	33.1 µM (inactive)	25.2 µM (inactive)	74.3 µM (inactive)	33.4 µM (inactive)	1.14 µM (inactive)	43 µM (inactive)	24.4 µM (inactive)	53.8 µM (inactive)				
COc1ccc([C@H]2[C@H]3COC(=O)[C@H]3C(C#N)=C3Sc4ccccc4N32)cc1	27.2 µM (inactive)	51.3 µM (inactive)	41.4 µM (inactive)	15.3 µM (inactive)	16.4 µM (inactive)	5.37 µM (inactive)	39 µM (inactive)	48.6 µM (inactive)	22.8 µM (inactive)	80.5 µM (inactive)	11.9 µM (inactive)	27.3 µM (inactive)	15.1 µM (inactive)	48.3 µM (inactive)		19.1 µM (inactive)	25.4 µM (inactive)	20.2 µM (inactive)	12.4 µM (inactive)
O=C(CCc1cc(O)ccc1O)OCCc1ccccc1	8.53 µM (inactive)	12.7 µM (inactive)	1.4 µM (inactive)	14.2 µM (inactive)		11.5 µM (inactive)	36.1 µM (inactive)	16.3 µM (inactive)	32.7 µM (inactive)	27.4 µM (inactive)	0.313 µM (active)	15.8 µM (inactive)	16.8 µM (inactive)	48.5 µM (inactive)	0.718 µM (active)	18.7 µM (inactive)	44.8 µM (inactive)		41.1 µM (inactive)
CC1(C)O[C@@H]2[C@@H](COC(=O)c3ccccc3)C[C@@H](C#N)[C@@H]2O1	> 100 µM (inactive)	> 100 µM (inactive)	> 100 µM (inactive)	> 100 µM (inactive)	> 100 µM (inactive)	> 100 µM (inactive)	> 100 µM (inactive)	> 100 µM (inactive)	> 100 µM (inactive)	> 100 µM (inactive)	> 100 µM (inactive)	> 100 µM (inactive)	> 100 µM (inactive)	> 100 µM (inactive)	> 100 µM (inactive)		> 100 µM (inactive)	> 100 µM (inactive)	> 100 µM (inactive)
Cn1c(=O)c2c(nc(-n3nc(-c4ccc(Cl)cc4)cc3N)n2C)n(C)c1=O	> 100 µM (inactive)	18.1 µM (inactive)	67.6 µM (inactive)	> 100 µM (inactive)	> 100 µM (inactive)	44.5 µM (inactive)	10.5 µM (inactive)		> 100 µM (inactive)	79.8 µM (inactive)	> 100 µM (inactive)	68.4 µM (inactive)	> 100 µM (inactive)	> 100 µM (inactive)	> 100 µM (inactive)	> 100 µM (inactive)	> 100 µM (inactive)		> 100 µM (inactive)
CCCCCCCCCCCCCCCCCCNc1ccn(C2OC(COP(=O)(O)O)C(O)C2O)c(=O)n1 (centres undefined)	> 100 µM (inactive)	> 100 µM (inactive)	> 100 µM (inactive)	> 100 µM (inactive)	> 100 µM (inactive)	> 100 µM (inactive)	> 100 µM (inactive)	> 100 µM (inactive)	> 100 µM (inactive)	> 100 µM (inactive)	> 100 µM (inactive)	> 100 µM (inactive)	> 100 µM (inactive)	> 100 µM (inactive)		> 100 µM (inactive)		> 100 µM (inactive)	> 100 µM (inactive)
COc1ccc(CN2C(=O)CCC/C=C\[C@H]2CI)cc1	11 µM (inactive)	14.4 µM (inactive)	6.97 µM (inactive)	13.9 µM (inactive)	11.6 µM (inactive)	19.5 µM (inactive)	16 µM (inactive)	11.6 µM (inactive)	15.1 µM (inactive)	12.1 µM (inactive)		10.7 µM (inactive)	14 µM (inactive)	13.2 µM (inactive)		11 µM (inactive)	13.1 µM (inactive)	17.6 µM (inactive)	9.71 µM (inactive)
